From patent publication EP3046573B1, “AMYLIN ANALOGUES” (Zealand Pharma A/S, priority 2013, dated 2015)
Where two headings read alike, the source gives them in different places. Numbered stars: 1 amine (or outer) side, 2 acyl side, 3 side chain; on linkers, the order of the positions; unused ones are H or OH. Bridge positions count the residues as written; N and C are the ends. Square brackets hold non-standard residues; d marks the D form. Peptide text beside a SMILES is read from it. * marks the point of attachment. C20 diacid = O=C(O)CCCCCCCCCCCCCCCCCCC(=O)*; γGlu = O=C(O)[C@H](CCC(=O)[*:2])N[*:1]; NMeI = CC[C@H](C)[C@H](NC)C(=O)O; Sar = CNCC(=O)O

How the values were obtained:
[1] = Solubility assessment (turbidity absorbance at 325 nm); format: physicochemical; conditions: stock 2 mg/ml diluted 1:1, ambient temperature (typically 25°C), n=1; for Solubility, Acetate buffer pH 4: 100 mM acetate buffer pH 4.0; for Solubility, Acetate buffer pH 5: 100 mM acetate buffer pH 5.0; for Solubility, Histidine buffer pH 6: 100 mM histidine buffer pH 6.0; for Solubility, Histidine buffer pH 7: 100 mM histidine buffer pH 7.0; for Solubility, Phosphate buffer pH 6: 100 mM phosphate buffer pH 6.0; for Solubility, Phosphate buffer pH 7: 100 mM phosphate buffer pH 7.0; for Solubility, Phosphate buffer pH 7.5: 100 mM phosphate buffer pH7.5
Outline: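 Peptide stock (2 mg/ml, water pH 2.5) diluted 1:1 into 100 mM acetate (pH 4.0, 5.0), histidine (pH 6.0, 7.0) or phosphate (pH 6.0–7.5) buffer; absorbance at 325 nm read at about 25°C, n=1. A325 ≤ 0.02 taken as solubility ≥ 1 mg/ml.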

[2] = target: T1, human calcitonin receptor (hCTR2) (Homo sapiens, UniProt P30988); test: hCTR2 assay: induction of cAMP (AlphaScreen cAMP Assay kit) in COS7 cells expressing hCTR2; format: cell-based
T1 construct: expressed in transfected cells
T1 sequence (P30988 25-474): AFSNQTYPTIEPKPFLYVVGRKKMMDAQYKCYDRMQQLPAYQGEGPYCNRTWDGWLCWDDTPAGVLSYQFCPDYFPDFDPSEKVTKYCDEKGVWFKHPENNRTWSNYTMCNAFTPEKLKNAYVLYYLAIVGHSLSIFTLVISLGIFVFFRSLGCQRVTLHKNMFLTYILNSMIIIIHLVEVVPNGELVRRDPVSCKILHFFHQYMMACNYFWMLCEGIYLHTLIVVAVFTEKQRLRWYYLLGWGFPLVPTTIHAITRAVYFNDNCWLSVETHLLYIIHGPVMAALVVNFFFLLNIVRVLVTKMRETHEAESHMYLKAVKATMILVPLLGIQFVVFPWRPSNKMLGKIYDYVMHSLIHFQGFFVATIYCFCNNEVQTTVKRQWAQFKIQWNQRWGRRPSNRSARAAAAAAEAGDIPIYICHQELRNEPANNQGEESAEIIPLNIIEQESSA
Outline: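 Stable hCTR2 clone in RAMP-naive COS7 cells; peptides titrated in Tyrode buffer (pH 7.4) with 100 µM IBMX, 0.1% casein, 15 min at 37° C. cAMP read by AlphaScreen after lysis; EC50 and efficacy relative to pramlintide from 4PL fit.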

Compound | Solubility, Acetate buffer pH 4 [1] | Solubility, Acetate buffer pH 5 [1] | Solubility, Histidine buffer pH 6 [1] | Solubility, Histidine buffer pH 7 [1] | Solubility, Phosphate buffer pH 6 [1] | Solubility, Phosphate buffer pH 7 [1] | Solubility, Phosphate buffer pH 7.5 [1] | EC50 [2] | EC50 ([2]; cAMP induction in COS7 cells expressing hCTR2, average of a minimum of 3 determinations, read-out: hCTR2 EC50)
CC[C@@H](C)[C@@H](NC(=O)[C@H](C)NC(=O)CN(C)C(=O)[C@H](Cc1ccccc1)NC(=O)[C@H](CC(N)=O)NC(=O)[C@H](CC(N)=O)NC(=O)[C@H](CO)NC(=O)[C@H](CO)NC(=O)[C@H](Cc1c[nH]cn1)NC(=O)[C@H](Cc1c[nH]cn1)NC(=O)[C@H](CC(C)C)NC(=O)[C@H](Cc1ccccc1)NC(=O)[C@H](CCC(=O)O)NC(=O)[C@H](C)NC(=O)[C@H](CC(C)C)NC(=O)[C@H](CCCNC(=N)N)NC(=O)[C@H](CCC(N)=O)NC(=O)[C@@H](NC(=O)[C@H](C)NC(=O)[C@@H]1CSSC[C@H](NC(=O)[C@H](CCCNC(=N)N)NC(=O)CC[C@H](NC(=O)CCCCCCCCCCCCCCCCCCC(=O)O)C(=O)O)C(=O)N[C@@H](CC(N)=O)C(=O)N[C@@H]([C@@H](C)O)C(=O)N[C@@H](C)C(=O)N[C@@H]([C@@H](C)O)C(=O)N1)[C@@H](C)O)C(=O)N[C@@H](CC(C)C)C(=O)N[C@@H](CO)C(=O)N[C@@H](CO)C(=O)N[C@H](C(=O)N[C@@H](CC(N)=O)C(=O)N[C@H](C(=O)NCC(=O)N[C@@H](CO)C(=O)N[C@@H](CC(N)=O)C(=O)N[C@H](C(=O)N1CCC[C@H]1C(N)=O)[C@@H](C)O)C(C)C)[C@@H](C)O [Compound 28, [19CD]-isoGlu-RC()NTATC()ATQRLAEFLHHSSNNF-Gly(Me)-A-DIle-LSSTNVGSNTP-NH2] ({C20 diacid-γGlu}-RCNTATCATQRLAEFLHHSSNNF[Sar]A[dI]LSSTNVGSNTP-NH2; disulfide 2-7) | SS (SS indicates solubility ≥ 1mg/ml) | SS (SS indicates solubility ≥ 1mg/ml) | SS (SS indicates solubility ≥ 1mg/ml) | SS (SS indicates solubility ≥ 1mg/ml) | SS (SS indicates solubility ≥ 1mg/ml) | SS (SS indicates solubility ≥ 1mg/ml) | SS (SS indicates solubility ≥ 1mg/ml) | 0.16 nM | –
CC[C@H](C)[C@@H](C(=O)N[C@@H](CC(C)C)C(=O)N[C@@H](CO)C(=O)N[C@@H](CO)C(=O)N[C@H](C(=O)N[C@@H](CC(N)=O)C(=O)N[C@H](C(=O)NCC(=O)N[C@@H](CO)C(=O)N[C@@H](CC(N)=O)C(=O)N[C@H](C(=O)N1CCC[C@H]1C(N)=O)[C@@H](C)O)C(C)C)[C@@H](C)O)N(C)C(=O)CN(C)C(=O)[C@H](Cc1ccccc1)NC(=O)[C@@H](CC(N)=O)NC(=O)[C@H](CC(N)=O)NC(=O)[C@H](CO)NC(=O)[C@H](CO)NC(=O)[C@H](Cc1c[nH]cn1)NC(=O)[C@H](Cc1c[nH]cn1)NC(=O)[C@H](CC(C)C)NC(=O)[C@H](Cc1ccccc1)NC(=O)[C@H](CCC(=O)O)NC(=O)[C@H](C)NC(=O)[C@H](CC(C)C)NC(=O)[C@H](CCCNC(=N)N)NC(=O)[C@H](CCC(N)=O)NC(=O)[C@@H](NC(=O)[C@H](C)NC(=O)[C@@H]1CSSC[C@H](NC(=O)[C@H](CCCNC(=N)N)NC(=O)CC[C@H](NC(=O)CCCCCCCCCCCCCCCCCCC(=O)O)C(=O)O)C(=O)N[C@@H](CC(N)=O)C(=O)N[C@@H]([C@@H](C)O)C(=O)N[C@@H](C)C(=O)N[C@@H]([C@@H](C)O)C(=O)N1)[C@@H](C)O [Compound 36, [19CD]-isoGlu-RC()NTATC()ATQRLAEFLHHSSN-DAsn-F-Gly(Me)-Ile(Me)-LSSTNVGSNTP-NH2] ({C20 diacid-γGlu}-RCNTATCATQRLAEFLHHSSN[dN]F[Sar][NMeI]LSSTNVGSNTP-NH2; disulfide 2-7) | SS (SS indicates solubility ≥ 1mg/ml) | SS (SS indicates solubility ≥ 1mg/ml) | SS (SS indicates solubility ≥ 1mg/ml) | SS (SS indicates solubility ≥ 1mg/ml) | SS (SS indicates solubility ≥ 1mg/ml) | SS (SS indicates solubility ≥ 1mg/ml) | SS (SS indicates solubility ≥ 1mg/ml) | – | 0.17 nM
CC[C@H](C)[C@@H](C(=O)N[C@@H](CC(C)C)C(=O)N[C@@H](CO)C(=O)N[C@@H](CO)C(=O)N[C@@H](CC(N)=O)C(=O)N[C@H](C(=O)NCC(=O)N[C@@H](CO)C(=O)N[C@@H](CC(N)=O)C(=O)N[C@H](C(=O)N1CCC[C@H]1C(N)=O)[C@@H](C)O)C(C)C)N(C)C(=O)[C@H](C)NC(=O)CN(C)C(=O)[C@H](Cc1ccccc1)NC(=O)[C@H](CC(N)=O)NC(=O)[C@H](CC(N)=O)NC(=O)[C@H](CO)NC(=O)[C@H](CO)NC(=O)[C@H](Cc1c[nH]cn1)NC(=O)[C@H](Cc1c[nH]cn1)NC(=O)[C@H](CC(C)C)NC(=O)[C@H](Cc1ccccc1)NC(=O)[C@H](CCC(=O)O)NC(=O)[C@H](C)NC(=O)[C@H](CC(C)C)NC(=O)[C@H](CCCNC(=N)N)NC(=O)[C@H](CCC(N)=O)NC(=O)[C@@H](NC(=O)[C@H](C)NC(=O)[C@@H]1CSSC[C@H](NC(=O)[C@H](CCCNC(=N)N)NC(=O)CC[C@H](NC(=O)CCCCCCCCCCCCCCCCCCC(=O)O)C(=O)O)C(=O)N[C@@H](CC(N)=O)C(=O)N[C@@H]([C@@H](C)O)C(=O)N[C@@H](C)C(=O)N[C@@H]([C@@H](C)O)C(=O)N1)[C@@H](C)O [Compound 37, [19CD]-isoGlu-RC()NTATC()ATQRLAEFLHHSSNNF-Gly(Me)-A-Ile(Me)-LSSNVGSNTP-NH2] ({C20 diacid-γGlu}-RCNTATCATQRLAEFLHHSSNNF[Sar]A[NMeI]LSSNVGSNTP-NH2; disulfide 2-7) | SS (SS indicates solubility ≥ 1mg/ml) | SS (SS indicates solubility ≥ 1mg/ml) | SS (SS indicates solubility ≥ 1mg/ml) | SS (SS indicates solubility ≥ 1mg/ml) | SS (SS indicates solubility ≥ 1mg/ml) | SS (SS indicates solubility ≥ 1mg/ml) | SS (SS indicates solubility ≥ 1mg/ml) | 0.39 nM | –
